In PubChem BioAssay (NCI):
Where “and” joins values, the source holds several entries; their conditions need not be identical. Identical values can stand only once.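 How tested: cells in 96-well plates exposed to compound for 48 hours at five concentrations. GI50 is the concentration that inhibits growth by half. TGI denotes the concentration required for complete inhibition of growth.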 Where a SMILES comes first, the peptide text is derived from it. [ ]: non-standard residue; d: D form. The star is where a group is joined. ξ: configuration not given here. NMeF = CN[C@@H](Cc1ccccc1)C(=O)O; NMeV = CN[C@H](C(=O)O)C(C)C; ξNMeN = CNC(CC(N)=O)C(=O)O; NMeA = CN[C@@H](C)C(=O)O; ξNMeV = CNC(C(=O)O)C(C)C; Boc = CC(C)(C)OC(=O)*

What was measured:
Assay in all cases: inhibition of tumour cell growth, NCI panel, 48 h
[1] = tested on: M14 melanoma
[2] = tested on: SF-268 CNS
[3] = tested on: HOP-62 NSCLC
[4] = tested on: NCI-H23 lung
[5] = tested on: SK-MEL-28 melanoma
[6] = tested on: HCT-15 colon
[7] = tested on: SK-MEL-5 melanoma
[8] = tested on: NCI-H460 lung
[9] = tested on: MALME-3M melanoma
[10] = tested on: HCC-2998 colon
[11] = tested on: HL-60(TB) leukemia
[12] = tested on: RPMI-8226 leukemia
[13] = tested on: SNB-75 CNS
[14] = tested on: COLO 205 colon
[15] = tested on: HT29 colon
[16] = tested on: SW-620 colon
[17] = tested on: KM20L2 colon
[18] = tested on: SK-MEL-2 melanoma
[19] = tested on: HOP-18 NSCLC
[20] = tested on: MOLT-4 leukemia
[21] = tested on: LOX IMVI melanoma
[22] = tested on: ACHN renal
[23] = tested on: EKVX NSCLC
[24] = tested on: OVCAR-8 ovarian
[25] = tested on: DMS 273 small cell lung
[26] = tested on: U251 CNS
[27] = tested on: LXFL 529 NSCLC
[28] = tested on: UACC-62 melanoma
[29] = tested on: XF 498 CNS
[30] = tested on: SNB-19 CNS
[31] = tested on: SF-295 CNS
[32] = tested on: SK-OV-3 ovarian
[33] = tested on: UO-31 renal
[34] = tested on: DLD-1 colon
[35] = tested on: M19-MEL melanoma
[36] = tested on: IGROV1 ovarian
[37] = tested on: HOP-92 NSCLC
[38] = tested on: A549 NSCLC
[39] = tested on: UACC-257 melanoma
[40] = tested on: KM12 colon
[41] = tested on: K-562 leukemia
[42] = tested on: CAKI-1 renal
[43] = tested on: 786-0 renal
[44] = tested on: SF-539 CNS
[45] = tested on: A498 renal
[46] = tested on: RXF 393 renal
[47] = tested on: OVCAR-5 ovarian
[48] = tested on: OVCAR-4 ovarian
[49] = tested on: HCT-116 colon
[50] = tested on: TK-10 renal
[51] = tested on: NCI-H226 lung
[52] = tested on: SN12C renal
[53] = tested on: OVCAR-3 ovarian
[54] = tested on: DMS 114 small cell lung
[55] = tested on: MDA-N
[56] = tested on: SR leukemia
[57] = tested on: NCI/ADR-RES ovarian
[58] = tested on: T-47D breast
[59] = tested on: CCRF-CEM leukemia
[60] = tested on: PC-3 prostate
[61] = tested on: DU-145 prostate
[62] = tested on: MCF7 breast
[63] = tested on: NCI-H522 lung
[64] = tested on: MDA-MB-231 breast
[65] = tested on: SNB-78 CNS
[66] = tested on: BT-549 breast
[67] = tested on: MDA-MB-435

COC1O[C@@H]2COC(C)(C)O[C@@H]2C(=O)N1Nc1ccc([N+](=O)[O-])cc1 (some centres undefined)
TGI [1]: > 100 µM | TGI [2]: > 100 µM | TGI [3]: > 100 µM | TGI [4]: > 100 µM | TGI [5]: > 100 µM | TGI [6]: > 100 µM | TGI [7]: > 100 µM | TGI [8]: > 100 µM | TGI [9]: > 100 µM | TGI [10]: > 100 µM | TGI [11]: > 100 µM | TGI [12]: 45.4 µM | TGI [13]: > 100 µM | TGI [14]: > 100 µM | TGI [15]: > 100 µM | TGI [16]: 72.9 µM | TGI [17]: > 100 µM | TGI [18]: > 100 µM | TGI [19]: > 100 µM | TGI [20]: > 100 µM | TGI [21]: 95.5 µM | TGI [22]: > 100 µM | TGI [23]: > 100 µM | TGI [24]: > 100 µM | TGI [25]: > 100 µM | TGI [26]: > 100 µM | TGI [27]: > 100 µM | TGI [28]: > 100 µM | TGI [29]: > 100 µM | TGI [30]: > 100 µM | TGI [31]: > 100 µM | TGI [32]: > 100 µM | TGI [33]: > 100 µM | TGI [34]: > 100 µM | TGI [35]: > 100 µM | TGI [36]: > 100 µM | TGI [37]: > 100 µM | TGI [38]: > 100 µM | TGI [39]: > 100 µM | TGI [40]: > 100 µM | TGI [41]: > 100 µM | TGI [42]: > 100 µM | TGI [43]: > 100 µM | TGI [44]: > 100 µM | TGI [45]: > 100 µM | TGI [46]: > 100 µM | TGI [47]: > 100 µM | TGI [48]: > 100 µM | TGI [49]: > 100 µM | TGI [50]: > 100 µM | TGI [51]: > 100 µM | TGI [52]: > 100 µM | TGI [53]: > 100 µM

COC(=O)[C@H](C)N(C)C(=O)C(CC(N)=O)N(C)C(=O)[C@H](Cc1ccccc1)N(C)C(=O)[C@@H]1CCCN1C(=O)[C@H](C(C)C)N(C)C(=O)C(C(C)C)N(C)C(=O)[C@@H](NC(=O)OC(C)(C)C)C(C)C (some centres undefined) (Boc-V[ξNMeV][NMeV]P[NMeF][ξNMeN][NMeA]-OMe)
GI50 [1]: 31.6 µM | TGI [1]: > 75 µM | TGI [2]: > 75 µM | GI50 [3]: > 75 µM | TGI [3]: > 75 µM | GI50 [4]: 35.6 µM | TGI [4]: > 75 µM | TGI [54]: 55.6 µM | GI50 [5]: 31.4 µM | TGI [5]: > 75 µM | TGI [6]: > 75 µM | GI50 [7]: 35.2 µM | TGI [7]: > 75 µM | GI50 [8]: 25.4 µM | TGI [8]: > 75 µM | TGI [55]: > 50 µM | TGI [9]: > 75 µM | GI50 [10]: 38.5 µM | TGI [10]: > 75 µM | GI50 [11]: 16.8 µM | TGI [11]: 35.9 µM and 36.3 µM | TGI [12]: > 5 µM | TGI [13]: > 75 µM | TGI [56]: 62.4 µM | GI50 [14]: > 75 µM | TGI [14]: > 75 µM | GI50 [15]: 27.2 µM | TGI [15]: > 75 µM | TGI [57]: > 50 µM | GI50 [16]: 34.7 µM | TGI [16]: > 75 µM | TGI [17]: > 75 µM | TGI [58]: > 50 µM | GI50 [59]: 21.8 µM | TGI [59]: 39.3 µM and > 75 µM | GI50 [18]: 18 µM | TGI [18]: > 50 µM and 48.8 µM | TGI [60]: > 50 µM | GI50 [20]: 17.1 µM | TGI [20]: 50 µM and 51.1 µM | GI50 [21]: 26.7 µM | TGI [21]: > 75 µM | GI50 [22]: > 75 µM | TGI [22]: > 75 µM | TGI [61]: > 50 µM | GI50 [23]: > 75 µM | TGI [23]: > 75 µM | TGI [24]: > 75 µM | TGI [25]: > 75 µM | GI50 [26]: 67.1 µM | TGI [26]: > 75 µM | TGI [27]: > 75 µM | GI50 [28]: 25.8 µM | TGI [28]: > 75 µM | TGI [29]: > 75 µM | GI50 [30]: > 75 µM | TGI [30]: > 75 µM | GI50 [31]: > 75 µM | TGI [31]: > 75 µM | GI50 [32]: > 75 µM | TGI [32]: > 75 µM | GI50 [33]: 40.6 µM | TGI [33]: > 75 µM | TGI [62]: > 50 µM | TGI [34]: > 75 µM | TGI [35]: 50.9 µM | GI50 [36]: 36.7 µM | TGI [36]: > 75 µM | GI50 [63]: 34.8 µM | TGI [63]: > 75 µM | GI50 [37]: 17.2 µM | TGI [37]: 50 µM and 57.4 µM | GI50 [38]: > 75 µM | TGI [38]: > 75 µM | TGI [39]: > 75 µM | TGI [40]: 34 µM | GI50 [41]: 33.1 µM | TGI [41]: > 75 µM | TGI [64]: > 50 µM | GI50 [42]: > 75 µM | TGI [42]: > 75 µM | GI50 [43]: > 75 µM | TGI [43]: > 75 µM | GI50 [44]: > 75 µM | TGI [44]: > 75 µM | GI50 [45]: 60.1 µM | TGI [45]: > 75 µM | TGI [65]: > 75 µM | TGI [46]: 50 µM | GI50 [47]: > 75 µM | TGI [47]: > 75 µM | TGI [48]: > 75 µM | TGI [66]: > 50 µM | GI50 [49]: 28 µM | TGI [49]: > 75 µM | GI50 [50]: 59.2 µM | TGI [50]: > 75 µM | TGI [67]: > 50 µM | TGI [51]: > 75 µM | TGI [52]: > 75 µM | TGI [53]: > 75 µM
